Test results published in ChEMBL document CHEMBL1201862, “PubChem BioAssay data set” (2004).
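How tested: cells in 96-well plates exposed to compound for 48 hours at five concentrations. GI50 marks 50% less growth.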 Calls of active or inactive are those of the source. Rule as the data show it: active = GI50 up to about 1.1 µM and inactive = higher.

Experiments:
Experiment in all cases: NCI-60 cell line screen, 48 h
[1] = system: SK-OV-3
[2] = system: HOP-92
[3] = system: A549
[4] = system: SR
[5] = system: KM12
[6] = system: HT-29
[7] = system: RXF 393
[8] = system: 786-0
[9] = system: SK-MEL-2
[10] = system: SNB-19
[11] = system: DU-145
[12] = system: OVCAR-5
[13] = system: SNB-75
[14] = system: EKVX
[15] = system: SF-539
[16] = system: HCC 2998
[17] = system: UACC-257
[18] = system: HCT-116
[19] = system: HOP-62
[20] = system: SF-268
[21] = system: HCT-15
[22] = system: UACC-62
[23] = system: IGROV-1
[24] = system: MDA-MB-231
[25] = system: SN12C
[26] = system: SK-MEL-28
[27] = system: TK-10
[28] = system: UO-31
[29] = system: ACHN
[30] = system: SF-295
[31] = system: HL-60
[32] = system: LOX IMVI
[33] = system: Hs-578T
[34] = system: MOLT-4
[35] = system: CAKI-1
[36] = system: U-251
[37] = system: M14
[38] = system: SW-620
[39] = system: BT-549
[40] = system: K562
[41] = system: OVCAR-3
[42] = system: CCRF-CEM
[43] = system: MDA-MB-435
[44] = system: NCI-H460
[45] = system: T47D
[46] = system: RPMI-8226
[47] = system: PC-3
[48] = system: NCI-H23
[49] = system: MCF7
[50] = system: MDA-N
[51] = system: NCI/ADR-RES
[52] = system: SK-MEL-5
[53] = system: NCI-H226
[54] = system: COLO 205
[55] = system: OVCAR-4
[56] = system: Malme-3M
[57] = system: OVCAR-8
[58] = system: A498
[59] = system: NCI-H522

Structure (SMILES): CC(C)(C)NC1=NC(C(F)(F)F)(C(F)(F)F)NC(=O)N1
- GI50 [1]: > 100 µM (inactive)
- GI50 [2]: 20 µM (inactive)
- GI50 [3]: 35.1 µM (inactive)
- GI50 [4]: 37 µM (inactive)
- GI50 [5]: 68.4 µM (inactive)
- GI50 [6]: 36.9 µM (inactive)
- GI50 [7]: > 100 µM (inactive)
- GI50 [8]: 52.4 µM (inactive)
- GI50 [9]: 65.2 µM (inactive)
- GI50 [10]: 67.3 µM (inactive)
- GI50 [11]: > 100 µM (inactive)
- GI50 [12]: > 100 µM (inactive)
- GI50 [13]: 75.2 µM (inactive)
- GI50 [14]: 84.1 µM (inactive)
- GI50 [15]: > 100 µM (inactive)
- GI50 [16]: 27.4 µM (inactive)
- GI50 [17]: 54.2 µM (inactive)
- GI50 [18]: 38.9 µM (inactive)
- GI50 [19]: > 100 µM (inactive)
- GI50 [20]: > 100 µM (inactive)
- GI50 [21]: 57 µM
- GI50 [22]: 54.6 µM (inactive)
- GI50 [23]: 64.1 µM (inactive)
- GI50 [24]: 77.1 µM (inactive)
- GI50 [25]: 54.7 µM (inactive)
- GI50 [26]: 32.7 µM (inactive)
- GI50 [27]: 67.8 µM (inactive)
- GI50 [28]: 53.6 µM (inactive)
- GI50 [29]: 39.7 µM (inactive)
- GI50 [30]: 39.7 µM (inactive)
- GI50 [31]: 16.5 µM (inactive)
- GI50 [32]: 53 µM (inactive)
- GI50 [33]: 58.2 µM (inactive)
- GI50 [34]: 30.2 µM (inactive)
- GI50 [35]: 46.1 µM (inactive)
- GI50 [36]: 70.3 µM (inactive)
- GI50 [37]: 44.5 µM (inactive)
- GI50 [38]: > 100 µM (inactive)
- GI50 [39]: 16.9 µM (inactive)
- GI50 [40]: 30.7 µM (inactive)
- GI50 [41]: 77.4 µM (inactive)
- GI50 [42]: 31.2 µM (inactive)
- GI50 [43]: 37.1 µM (inactive)
- GI50 [44]: 47.4 µM (inactive)
- GI50 [45]: 28.3 µM (inactive)
- GI50 [46]: 36.9 µM (inactive)
- GI50 [47]: 34.8 µM (inactive)
- GI50 [48]: > 100 µM (inactive)
- GI50 [49]: 37.8 µM (inactive)
- GI50 [50]: 49.2 µM (inactive)
- GI50 [51]: 61 µM (inactive)
- GI50 [52]: 24.8 µM (inactive)
- GI50 [53]: > 100 µM (inactive)
- GI50 [54]: > 10 µM (inactive)
- GI50 [55]: 36.3 µM (inactive)
- GI50 [56]: 34.4 µM (inactive)
- GI50 [57]: 80.4 µM (inactive)

Structure (SMILES): Oc1nc2c(c(-c3ccc(Br)cc3)n1)COC/C2=C\c1ccc(Br)cc1
- GI50 [1]: > 50 µM (inactive)
- GI50 [2]: > 50 µM (inactive)
- GI50 [5]: > 50 µM (inactive)
- GI50 [6]: > 50 µM (inactive)
- GI50 [7]: > 50 µM (inactive)
- GI50 [8]: > 50 µM (inactive)
- GI50 [9]: > 50 µM (inactive)
- GI50 [10]: > 50 µM (inactive)
- GI50 [11]: > 50 µM (inactive)
- GI50 [12]: > 50 µM (inactive)
- GI50 [13]: > 50 µM (inactive)
- GI50 [14]: > 50 µM (inactive)
- GI50 [15]: > 50 µM (inactive)
- GI50 [16]: > 50 µM (inactive)
- GI50 [17]: > 50 µM (inactive)
- GI50 [18]: > 50 µM (inactive)
- GI50 [19]: > 50 µM (inactive)
- GI50 [20]: > 50 µM (inactive)
- GI50 [21]: > 50 µM
- GI50 [22]: > 50 µM (inactive)
- GI50 [23]: > 50 µM (inactive)
- GI50 [24]: > 50 µM (inactive)
- GI50 [25]: > 50 µM (inactive)
- GI50 [26]: > 50 µM (inactive)
- GI50 [27]: > 50 µM (inactive)
- GI50 [28]: > 50 µM (inactive)
- GI50 [29]: > 50 µM (inactive)
- GI50 [58]: > 50 µM (inactive)
- GI50 [30]: > 50 µM (inactive)
- GI50 [31]: > 50 µM (inactive)
- GI50 [32]: > 50 µM (inactive)
- GI50 [33]: > 50 µM (inactive)
- GI50 [34]: > 50 µM (inactive)
- GI50 [35]: > 50 µM (inactive)
- GI50 [36]: > 50 µM (inactive)
- GI50 [37]: > 50 µM (inactive)
- GI50 [38]: > 50 µM (inactive)
- GI50 [39]: > 50 µM (inactive)
- GI50 [40]: > 50 µM (inactive)
- GI50 [59]: > 50 µM (inactive)
- GI50 [41]: > 50 µM (inactive)
- GI50 [42]: > 50 µM (inactive)
- GI50 [43]: 29.4 µM (inactive)
- GI50 [44]: > 50 µM (inactive)
- GI50 [45]: > 50 µM (inactive)
- GI50 [46]: > 50 µM (inactive)
- GI50 [47]: > 50 µM (inactive)
- GI50 [48]: > 50 µM (inactive)
- GI50 [49]: 47.4 µM (inactive)
- GI50 [50]: > 50 µM (inactive)
- GI50 [51]: > 50 µM (inactive)
- GI50 [52]: > 50 µM (inactive)
- GI50 [53]: > 50 µM (inactive)
- GI50 [54]: > 50 µM (inactive)
- GI50 [55]: > 50 µM (inactive)
- GI50 [56]: > 50 µM (inactive)
- GI50 [57]: > 50 µM (inactive)
